Like-named read-outs stand apart in the source and are kept apart here. *1 amine or outer side, *2 acyl side, *3 side chain or, on linkers, in order; H or OH if unused. Where a SMILES comes first, the peptide text is derived from it. Bridges are numbered along the chain shown (N, C = ends). Roman numbers before positions name the chains, in order. [ ]: non-standard residue; d: D form. ξ: configuration not given here. Phe(4-NH2) = Nc1ccc(C[C@H](N)C(=O)O)cc1; NMehCys = CN[C@@H](CCS)C(=O)O; Thr(3ξ) = CC(O)[C@H](N)C(=O)O; Dap = NC[C@H](N)C(=O)O; X1 = O=C(C[*:1])[*:2]

Broadly, the IC50 is the point on the concentration scale where inhibition reaches its midpoint. Broadly, the tissue uptake is the percentage of the injected dose found per gram of tissue.

For one series, the system named is SSTRs, NCI-H69 membranes. The experiment in a line: [125I]SST-14 binding to NCI-H69 cell membranes (SSTR affinity). The arrangement: species or system human. Conditions: inhibition of [125I]SST-14 binding, two-site fit. The method, then:
(§1) [^125I-Tyr^11] somatostatin-14 ([^125I]SST-14) was obtained from Amersham. Unlabeled somatostatin-14 was purchased either from BACHEM (Torrance, Calif.) or from Sigma Chemical Co. (St. Louis, Mo.). Protease inhibitors, leupeptin, aprotinin, bacitracin, and benzamidine and other reagents were obtained from Sigma. Protease inhibitors were prepared in dimethylsulfoxide (DMSO) at a concentration 500×higher than the final assay concentration. The prepared protease solution was stored at −20° C. and diluted with the buffer solution before use.
Membrane preparations used in these studies were prepared from two commercially available tumor cell lines, the human small cell lung cancer cell line, NCI-H69, and the rat pancreatic tumor cell line, AR42J, obtained from American Type Culture Collection (ATCC) (Manassas, Va.). NCI-H69 cells were maintained by serial passage in RPMI 1640 with 10% fetal calf serum. AR42J cells were maintained in F-12K medium containing 20% fetal calf serum. Cells in culture flasks were incubated at 37° C. with 5% CO2 in air atmosphere following the recommendations of the “Product Sheet” from ATCC.
Cultured cells were first detached from plates with phosphate-buffered saline, pH 7.4, containing 2 mM EDTA, and centrifuged at 1,500×g for 10 min. Cells were then resuspended in 5-10 mL of the homogenization buffer (1 mM sodium bicarbonate, pH 7.4, 1 mM EDTA, 1 mM EGTA, 2.5 mM DTT, 5 μg/mL leupeptin, 5 μg/mL aprotinin, 100 μg/mL bacitracin, 100 μg/mL benzamidine) for 10 min on ice. The cells were lysed for 30 sec twice in a polytron with a setting at 5. The lysate was centrifuged at 1,000×g for 10 min at 4° C. The supernatant was centrifuged at 40,000×g for 20 min at 4° C. This step was repeated twice with the homogenization buffer in the absence of protease inhibitors. The pellet was then resuspended at 1-5 mg membrane protein/mL in 25 mM Tris, pH 7.4 without the addition of protease inhibitors and the membranes were stored at −80° C. before use. Membrane protein concentration was determined spectroscopically using the bicinchonic acid (BCA) protein assay kit (Pierce Chemical Inc. (Rockford, Ill.).
All [^125I]SST-14 binding assays were performed in 0.5 mL binding buffer containing 50 mM HEPES, pH 7.5, 10 mM MgCl2, 0.25% BSA (w/v) containing protease inhibitors (same as above) and incubated at 37° C. for 45 minutes. After incubation, samples were kept at 4° C. and rapidly filtered under vacuum through a Whatman GF/B glass fiber filter with a 12-well harvester (Skatron Instruments Inc., Sterling, Va.). The filter was washed for 9 seconds with cold 50 mM HEPES, pH 7.5, 10 mM MgCl2, 0.25% BSA (w/v). Thirty-five […] of [^125I]SST-14 from Amersham was used in each tube. Peptides were solubilized in DMSO and serially diluted with DMSO. Five μL of peptide in DMSO was used to obtain the final concentration. DMSO (5 μL) was added to the tube without the addition of any peptide or unlabeled SST-14, so that each tube contained 1% DMSO. Non-specific binding was defined as the binding of [^125I]SST-14 which was not displaceable with an excess of unlabeled SST-14 at a concentration of 1×10^−6 M. The bound [^125I]SST-14 without or with excess unlabeled SST-14 (1×10^−6 M) was defined as total binding and nonspecific binding, respectively. The difference between total and nonspecific binding was defined as specific binding. The percent inhibition (% Inh) by peptide was expressed as
% Inh=(total binding−total binding in the presence of peptide)/specific binding×100%
Inclusion of protease inhibitors in homogenizing medium as well as assay buffer is essential to maintain the integrity of both [^125I]SST-14 and somatostatin analogs for the receptor binding assay and to obtain optimal specific binding. The highest specific binding was observed when MgCl2 (10 mM) was included. Membranes were finally resuspended in a sodium-free medium and receptor binding assays were performed in the absence of sodium ions. […]

The next series has as its system AR42J tumor xenografts. Description: Biodistribution of 99mTc-labeled compounds in nude mice with AR42J tumor xenografts. The series is classed as in vivo. The note with it: 99mTc-labeled compound, 90 minutes post-injection. The method, then:
(§2) Rat pancreatic AR42J cells (ATCC, Rockville, Md., USA) were grown in Modified Ham's F12K medium (Cat. No. N-3520, Sigma, St. Louis, Mo., USA) containing 20% fetal bovine serum (FCS) (Cat. No. 1224, Lot No. 9702058, Sigma, St. Louis, Mo., USA) under sterile conditions in 95% humidity and 5% CO2. At a density of approximately 10×10^6 cells per T150 flask, the cells were harvested with trypsin and collected by centrifugation at 2400 rpm (800×g) for 15 minutes in a benchtop centrifuge (IEC Centra-8 tabletop centrifuge, International Equipment Company, Needham, Mass., USA). The cells were resuspended in medium containing 20% FCS for implantation.
(§3) Six female nude mice (CrlLNU/NU-nuBR, 6-8 weeks old) were injected subcutaneously into the right flank with tumor cells (2×10^7/100 μL) in 20% matrigel (Collaborative Biomedical Products, Chicago, Ill., USA). Fourteen days after inoculation tumors were visible in all animals. Three weeks after inoculation, tumors were aseptically dissected, minced and implanted into 60 nude mice using a trochar. The tumor xenografts from the second passage were used for biodistribution studies.
(§4) A dose of approximately 50-100 μCi ^99mTc-labeled compound/mouse was injected intravenously in a total volume of 100 μL. Mice were sacrificed 90 minutes post-injection by decapitation and the trunk blood was collected. Tumors (1 to 3 per mouse), liver, gastrointestinal tract, kidneys, and samples of muscle from both legs (quadriceps femoralis) were collected, weighed, and counted for radioactivity.

Assay in series [1]: as above
Format: in vivo. The note with it: nude, mouse, iv, total radioactivity, 99mTc-labeled compound, 90 minutes post-injection; for tissue uptake dose at 1.5 h: i.v. The method, then: as §2, §3, §4

Series [2] deals with SSTRs, AR42J cell membranes. Description: [125I]SST-14 binding to AR42J cell membranes (SSTR affinity). The arrangement: species or system rat. Conditions: inhibition of [125I]SST-14 binding; two-site fit; read-out: IC50 Values for AR42J Cell Membranes (first value). The method, then: as §1
Membrane preparations used in these studies were prepared from two commercially available tumor cell lines, the human small cell lung cancer cell line, NCI-H69, and the rat pancreatic tumor cell line, AR42J, obtained from American Type Culture Collection (ATCC) (Manassas, Va.). […]
Cultured cells were first detached from plates with phosphate-buffered saline, pH 7.4, containing 2 mM EDTA, and centrifuged at 1,500×g for 10 min. […] Membrane protein concentration was determined spectroscopically using the bicinchonic acid (BCA) protein assay kit (Pierce Chemical Inc. (Rockford, Ill.).
All [^125I]SST-14 binding assays were performed in 0.5 mL binding buffer containing 50 mM HEPES, pH 7.5, 10 mM MgCl2, 0.25% BSA (w/v) containing protease inhibitors (same as above) and incubated at 37° C. for 45 minutes. […] The percent inhibition (% Inh) by peptide was expressed as […]

For the molecule `CC(O)[C@H](NC(=O)[C@H](CS)NC(=O)[C@H](Cc1ccc(N)cc1)NC(=O)[C@@H](N)CNC(=O)CSCC[C@H]1C(=O)N[C@@H](Cc2ccc(O)cc2)C(=O)N[C@H](Cc2c[nH]c3ccccc23)C(=O)N[C@@H](CCCCN)C(=O)N[C@@H](C(C)O)C(=O)N[C@@H](Cc2ccccc2)C(=O)N1C)C(=O)N[C@@H](CO)C(=O)O` (stereo partly drawn) [cyclo-Tyr-D-Trp-Lys-Thr-Phe-(N—CH3)Hcy(CH2CO-β-Dap-Phe(4—NH2)-Cys-Thr-Ser)] (I: cyclo(F[NMehCys]Y[dW]K[Thr(3ξ)]) / II: H-[Dap][Phe(4-NH2)]C[Thr(3ξ)]S-OH; linker I:2-II:1 via X1), the IC50 in the series with SSTRs, NCI-H69 membranes (read-out: IC50 Values for Uncomplexed Compounds, NCI-H69 (first value)) was 0.201 nM; in the series with SSTRs, NCI-H69 membranes (read-out: IC50 Values for Uncomplexed Compounds, NCI-H69 (second value)), 8.91 nM; in series [2] it was 0.433 nM. This molecule gave a TUMOR in the series with AR42J tumor xenografts (i.v.) of 24.7 %ID/g. Moreover, the “T:B” value in the series on AR42J tumor xenografts (tumor to blood ratio) was found to be 29. For the same molecule, in the series with AR42J tumor xenografts (tumor to muscle ratio), the “T:M” value is 127. The tissue uptake dose at 1.5 h in series [1] (gastrointestinal tract, read-out: GI) stood at 8 %ID; in series [1] (spleen, read-out: Spleen), 0.21 %ID. Further, the tissue uptake at 1.5 h in series [1] (kidneys) came to 4.8 %ID/g. Besides, in series [1] (urine), the dose excreted at 1.5 h was 59%.

(Values after patent US6358491B1, “Somatostatin analogs” (Berlex Laboratories, Inc., priority 1999, dated 2002).)
